Measured values from patent publication US9981964B2 (Agency for Science, Technology and Research, priority 2013, dated 2018).

These compounds were tested on HEK293-STF3A cells (assay: STF3A assay (STF luciferase reporter in Wnt3A-expressing HEK293 cells)). Settings: Homo sapiens, 24 h, 1 day of treatment.
Format: cell-based
Excerpt: HEK293-STF cell line was modified from Human embryonic kidney cell line HEK293 transfected with the STF reporter. HEK293-STF3A cell line was further modified from HEK293-STF cell line to express Wnt3A. This cell line was used to identify compounds that regulate either early or late signaling components of the Wnt pathway. These two cell lines were obtained from David Virshup's laboratory, Duke-NUS. L-Wnt3A (ATCC, #CRL-2647) cell line was used for providing Wnt3A conditioned media. The three cell lines were grown in DMEM with 10% FBS incubated in 37° C. with 5% CO2.
2×10^4 HEK293-STF3A cells in 75 μl culture media were seeded in each well of white 96 well plates (Greiner #655098) and incubated overnight at 37° C. 25 μl serially diluted compound was added to the cells to give final concentration of 50 μM to 1.5 nM. After 1 day of treatment, 100 μl of Steady-Glo Luciferase Assay reagent (#E2520, Promega) was added to each well and incubated for 10 minutes at room temperature. Luminescence was measured using Tecan Safire2 plate reader.

| SMILES | IC50 [µM] |
| --- | --- |
| O=C(CN1CCCC2=C1C(=O)N(C1CC1)C2=O)Nc1ccc(-c2ccccc2)cc1 [Compound 67, N-([1,1′-biphenyl]-4-yl)-2-(6-cyclopropyl-5,7-dioxo-2,3,4,5,6,7-hexahydro-1H-pyrrolo[3,4-b]pyridin-1-yl)acetamide] | < 0.1 |
| Cc1cncc(-c2ncc(NC(=O)CN3CCCC4=C3C(=O)N(C3CC3)C4=O)cc2C)c1 [Compound 68, 2-(6-cyclopropyl-5,7-dioxo-2,3,4,5,6,7-hexahydro-1H-pyrrolo[3,4-b]pyridin-1-yl)-N-(3,5′-dimethyl-[2,3′-bipyridin]-5-yl)acetamide] | < 0.1 |
| O=C(CN1CCCC2=C1C(=O)N(C1CC1)C2=O)Nc1ccc(-c2ccc(F)nc2)nn1 [Compound 69, 2-(6-cyclopropyl-5,7-dioxo-2,3,4,5,6,7-hexahydro-1H-pyrrolo[3,4-b]pyridin-1-yl)-N-(6-(6-fluoropyridin-3-yl)pyridazin-3-yl)acetamide] | < 0.1 |
| CN1C(=O)C2=C(C1=O)N(CC(=O)Nc1ccc(-c3ccccc3)cc1)CCC2 [Compound 70, N-([1,1′-biphenyl]-4-yl)-2-(6-methyl-5,7-dioxo-2,3,4,5,6,7-hexahydro-1H-pyrrolo[3,4-b]pyridin-1-yl)acetamide] | < 0.1 |
| CN1C(=O)C2=C(C1=O)N(CC(=O)Nc1ccc(-c3ccncc3)nn1)CCC2 [Compound 71, 2-(6-methyl-5,7-dioxo-2,3,4,5,6,7-hexahydro-1H-pyrrolo[3,4-b]pyridin-1-yl)-N-(6-(pyridin-4-yl)pyridazin-3-yl)acetamide] | < 1 |
| CN1C(=O)C2=C(C1=O)N(CC(=O)Nc1ccc(-c3cncc(F)c3)nn1)CCC2 [Compound 72, N-(6-(5-fluoropyridin-3-yl)pyridazin-3-yl)-2-(6-methyl-5,7-dioxo-2,3,4,5,6,7-hexahydro-1H-pyrrolo[3,4-b]pyridin-1-yl)acetamide] | < 0.1 |
| CN1C(=O)C2=C(C1=O)N(CC(=O)Nc1ccc(-c3ccncn3)cc1)CCC2 [Compound 73, 2-(6-methyl-5,7-dioxo-2,3,4,5,6,7-hexahydro-1H-pyrrolo[3,4-b]pyridin-1-yl)-N-(4-(pyrimidin-4-yl)phenyl)acetamide] | > 10 |
| CN1C(=O)C2=C(C1=O)N(CC(=O)Nc1ccc(-c3ncccn3)cc1)CCC2 [Compound 74, 2-(6-methyl-5,7-dioxo-2,3,4,5,6,7-hexahydro-1H-pyrrolo[3,4-b]pyridin-1-yl)-N-(4-(pyrimidin-2-yl)phenyl)acetamide] | < 1 |
| CN1C(=O)C2=C(C1=O)N(CC(=O)Nc1ccc(-c3cncnc3)cc1)CCC2 [Compound 75, 2-(6-methyl-5,7-dioxo-2,3,4,5,6,7-hexahydro-1H-pyrrolo[3,4-b]pyridin-1-yl)-N-(4-(pyrimidin-5-yl)phenyl)acetamide] | < 0.1 |
| CN1C(=O)C2=C(C1=O)N(CC(=O)Nc1ccc(-c3ccccn3)cc1)CCC2 [Compound 76, 2-(6-methyl-5,7-dioxo-2,3,4,5,6,7-hexahydro-1H-pyrrolo[3,4-b]pyridin-1-yl)-N-(4-(pyridin-2-yl)phenyl)acetamide] | < 0.1 |
| CN1C(=O)C2=C(C1=O)N(CC(=O)Nc1ccc(-c3cccnc3)cc1)CCC2 [Compound 77, 2-(6-methyl-5,7-dioxo-2,3,4,5,6,7-hexahydro-1H-pyrrolo[3,4-b]pyridin-1-yl)-N-(4-(pyridin-3-yl)phenyl)acetamide] | < 0.1 |
| Cc1cc(-c2ccccc2)ccc1NC(=O)CN1CCCC2=C1C(=O)N(C)C2=O [Compound 78, 2-(6-methyl-5,7-dioxo-2,3,4,5,6,7-hexahydro-1H-pyrrolo[3,4-b]pyridin-1-yl)-N-(3-methyl-[1,1′-biphenyl]-4-yl)acetamide] | > 10 |
| CN1C(=O)C2=C(C1=O)N(CC(=O)Nc1ccc(-c3ccncc3)cc1)CCC2 [Compound 79, 2-(6-methyl-5,7-dioxo-2,3,4,5,6,7-hexahydro-1H-pyrrolo[3,4-b]pyridin-1-yl)-N-(4-(pyridin-4-yl)phenyl)acetamide] | < 0.1 |
| CN1C(=O)C2=C(C1=O)N(CC(=O)Nc1ccc(-c3ccccc3)c(F)c1)CCC2 [Compound 80, N-(2-fluoro-[1,1′-biphenyl]-4-yl)-2-(6-methyl-5,7-dioxo-2,3,4,5,6,7-hexahydro-1H-pyrrolo[3,4-b]pyridin-1-yl)acetamide] | < 0.1 |
| COc1cc(-c2ccccc2)ccc1NC(=O)CN1CCCC2=C1C(=O)N(C)C2=O [Compound 81, N-(3-methoxy-[1,1′-biphenyl]-4-yl)-2-(6-methyl-5,7-dioxo-2,3,4,5,6,7-hexahydro-1H-pyrrolo[3,4-b]pyridin-1-yl)acetamide] | > 10 |
| Cc1cc(NC(=O)CN2CCCC3=C2C(=O)N(C)C3=O)ccc1-c1ccccc1 [Compound 82, 2-(6-methyl-5,7-dioxo-2,3,4,5,6,7-hexahydro-1H-pyrrolo[3,4-b]pyridin-1-yl)-N-(2-methyl-[1,1′-biphenyl]-4-yl)acetamide] | < 0.1 |
| CN1C(=O)C2=C(C1=O)N(CC(=O)Nc1ccc(-c3ccccc3)cc1F)CCC2 [Compound 83, N-(3-fluorobiphenyl-4-yl)-2-(6-methyl-5,7-dioxo-2,3,4,5,6,7-hexahydro-1H-pyrrolo[3,4-b]pyridin-1-yl)acetamide] | < 0.1 |
| CN1C(=O)C2=C(C1=O)N(CC(=O)Nc1ccc(-c3ccccc3F)nn1)CCC2 [Compound 84, N-(6-(2-fluorophenyl)pyridazin-3-yl)-2-(6-methyl-5,7-dioxo-2,3,4,5,6,7-hexahydro-1H-pyrrolo[3,4-b]pyridin-1-yl)acetamide] | < 0.1 |
| Cc1ccc(-c2ccc(NC(=O)CN3CCCC4=C3C(=O)N(C3CC3)C4=O)nc2)cn1 [Compound 85, 2-(6-cyclopropyl-5,7-dioxo-2,3,4,5,6,7-hexahydro-1H-pyrrolo[3,4-b]pyridin-1-yl)-N-(6′-methyl-[3,3′-bipyridin]-6-yl)acetamide] | < 0.1 |
| Cc1ccc(-c2ccc(NC(=O)CN3CCCC4=C3C(=O)N(C3CC3)C4=O)nn2)cn1 [Compound 86, 2-(6-cyclopropyl-5,7-dioxo-2,3,4,5,6,7-hexahydro-1H-pyrrolo[3,4-b]pyridin-1-yl)-N-(6-(6-methylpyridin-3-yl)pyridazin-3-yl)acetamide] | < 0.1 |
| O=C(CN1CCCC2=C1C(=O)N(C1CC1)C2=O)Nc1ccc(-c2cncc(F)c2)nc1 [Compound 87, 2-(6-cyclopropyl-5,7-dioxo-2,3,4,5,6,7-hexahydro-1H-pyrrolo[3,4-b]pyridin-1-yl)-N-(5′-fluoro-[2,3′-bipyridin]-5-yl)acetamide] | < 0.1 |
| CN1C(=O)C2=C(C1=O)N(CC(=O)Nc1ccc(-c3ccncc3)cn1)CCC2 [Compound 88, N-([3,4′-bipyridin]-6-yl)-2-(6-methyl-5,7-dioxo-2,3,4,5,6,7-hexahydro-1H-pyrrolo[3,4-b]pyridin-1-yl)acetamide] | < 1 |
| O=C(CN1CCCC2=C1C(=O)N(C1CC1)C2=O)Nc1ccc(-c2cncnc2)cn1 [Compound 89, 2-(6-cyclopropyl-5,7-dioxo-2,3,4,5,6,7-hexahydro-1H-pyrrolo[3,4-b]pyridin-1-yl)-N-(5-(pyrimidin-5-yl)pyridin-2-yl)acetamide] | < 0.1 |
| O=C(CN1CCCC2=C1C(=O)N(C1CC1)C2=O)Nc1ccc(-c2cncnc2)cc1 [Compound 90, 2-(6-cyclopropyl-5,7-dioxo-2,3,4,5,6,7-hexahydro-1H-pyrrolo[3,4-b]pyridin-1-yl)-N-(4-(pyrimidin-5-yl)phenyl)acetamide] | < 0.1 |
